The source of these data is publication PMC12434519.

Read-outs that look alike come from different tables or passages of the source.

One series deals with ZIKV NS5 (Zika virus, UniProt Q32ZE1). Put plainly: Biochemical activity assay for ZIKV NS5 MTase (MTase-Glo). The method, then: final concentration, lab stock) during dialysis at 4 °C overnight against a buffer containing 50 mM Tris-HCl, pH 7.5, 20 mM imidazole, 500 mM NaCl, and 1 mM dithiothreitol (DTT). To remove the His6-SUMO tag, the protein sample was mixed with cOmplete His-Tag purification resin (Roche), incubated for 2 h at 4 °C, and loaded onto a gravity flow column. Since the His6-SUMO tag bound to the column material, the flow-through was collected containing untagged target protein. The target protein was further purified by a Superdex200 10/300 gel filtration column (GE Healthcare) in buffer (20 mM Tris-HCl, pH 7.5, 500 mM NaCl, 1 mM DTT). Fractions were analyzed by SDS-PAGE and Coomassie staining. Protein-containing fractions were pooled, flash-frozen in liquid nitrogen, and stored at -80 °C. […]
Sequence of ZIKV NS5 (Q32ZE1 2517-2781): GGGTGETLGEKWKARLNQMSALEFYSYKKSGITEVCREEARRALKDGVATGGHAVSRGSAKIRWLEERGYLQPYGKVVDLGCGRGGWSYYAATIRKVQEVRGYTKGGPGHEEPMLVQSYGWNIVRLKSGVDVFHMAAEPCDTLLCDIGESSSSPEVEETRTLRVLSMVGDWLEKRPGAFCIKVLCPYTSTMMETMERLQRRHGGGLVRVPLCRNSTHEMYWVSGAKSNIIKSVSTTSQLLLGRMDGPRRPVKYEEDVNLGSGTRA
in 1X NSP14 reaction buffer (50 mM Tris-HCl, pH 7.5, 6 mM KCl, 1.25 mM MgCl2, 1 mM DTT, and 0.01% Tween-20) in a total reaction volume of 16 µl in absence or presence of increasing inhibitor compound concentrations for 45 min at 37 °C. SAH production was monitored using the bioluminescence-based MTase-Glo™ Methyltransferase Assay kit (Promega) following manufacturer’s instructions. The luminescence signal of each reaction was recorded in relative light units (RLUs) using a Synergy Neo plate reader (BioTek, Winooski, VT). […] IC50 values (mean from at least 3 independent experiments) were calculated using the GraphPad Prism software (Version 10.1.1) and a four-parameter logistic regression.
Biochemical activity assays for the human RNMT-RAM complex and ZIKV NS5 MTases Activity assays were performed in 1x NSP14 reaction buffer. For hRNMT-RAM, we used 15 nM enzyme, 2.5 µM GpppG and 2 µM SAM. For ZIKV NS5, we used 25 nM enzyme, 3 µM […]
Gppp[…]3, and 5 µM SAM. The enzymatic reaction was initiated with the addition of the enzyme in assay buffer and incubated at RT or 37 °C for 45 min, respectively. SAH was detected using the MTase-Glo™ assay.
Differential scanning fluorimetry (DSF)

A short description of series [1]: SAH counterscreen inhibition (counterscreen of the MTase-Glo luminescence readout). A general note: The purpose of a counterscreen is to sort out artefacts and off-target activity.
In another series the target is human RNMT-RAM complex (Homo sapiens, UniProt O43148). As to the kind of experiment: Biochemical activity assay for the human RNMT-RAM complex (MTase-Glo).
Sequence of human RNMT-RAM complex (O43148 whole entry): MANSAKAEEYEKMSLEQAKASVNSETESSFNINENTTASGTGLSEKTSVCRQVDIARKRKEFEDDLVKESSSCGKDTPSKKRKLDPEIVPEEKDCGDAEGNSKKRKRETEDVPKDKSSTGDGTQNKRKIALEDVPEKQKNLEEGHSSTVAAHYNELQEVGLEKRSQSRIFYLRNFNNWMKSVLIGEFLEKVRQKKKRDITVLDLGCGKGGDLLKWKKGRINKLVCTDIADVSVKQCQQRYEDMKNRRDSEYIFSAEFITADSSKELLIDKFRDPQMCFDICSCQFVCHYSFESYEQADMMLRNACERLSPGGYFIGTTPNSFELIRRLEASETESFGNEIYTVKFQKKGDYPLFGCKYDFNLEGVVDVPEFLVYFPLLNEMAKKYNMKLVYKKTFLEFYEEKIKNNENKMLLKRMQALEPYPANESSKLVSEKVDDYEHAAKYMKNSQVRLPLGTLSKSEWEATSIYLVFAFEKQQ
Sequence of human RNMT-RAM complex (Q9BTL3 whole entry partner): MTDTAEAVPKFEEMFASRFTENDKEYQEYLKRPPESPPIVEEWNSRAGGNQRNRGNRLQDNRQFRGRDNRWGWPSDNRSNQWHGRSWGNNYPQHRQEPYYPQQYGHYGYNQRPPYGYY
For series [2], the system named is SARS-CoV-2. Further details: method as in PMID 39663451. The following applies: transgenic mouse model; efficacy comparable to nirmatrelvir; cited from earlier work.
Series [3] can be described thus: Cytotoxicity in Huh-7.5 cells. The following applies: human, n = 3. In kind it is cell-based, Homo sapiens.
The next series has as its system Huh-7.5 cells. As to the kind of experiment: Cytotoxicity in Huh-7.5 cells. In kind it is cell-based, Homo sapiens. As to conditions: at ≤ 3 μM compound.
For series [4], the system named is SARS-CoV-2. Put plainly: SARS-CoV-2 viral infection assay in Huh-7.5 cells. In kind it is cell-based, SARS-CoV-2 (strain: USA-WA1/2020). The following applies: n = 3.
Setting [5] is: fit of concentration-response curve.

As usually defined, the IC50 is the concentration at which inhibition is half-maximal. Regarding `Cc1cnc(C(=O)NCc2ccc(CNC(=O)c3ccc(O)c(C)c3)cc2)c(C)c1` [RU-0834201, CC1=CC(C)=C(C(=O)NCC2=CC=C(CNC(=O)C3=CC=C(O)C(C)=C3)C=C2)N=C1], the Emax at ZIKV NS5 (0.75 h, LUM % inhibition, read-out: ZIKV NS5 inhibition: Maximum measured) came out at 12.1%; at human RNMT-RAM complex (read-out: hRNMT-RAM inhibition: Maximum response), 6.56%. Also, the IC50 on ZIKV NS5 (LUM % inhibition) was over 250 µM; in series [1] (read-out: SAH counterscreen inhibition: IC50, LUM % inhibition), over 125 µM; on human RNMT-RAM complex (LUM % inhibition, read-out: hRNMT-RAM inhibition: IC50), over 250 µM. The “ZIKV NS5 inhibition: Hill slope” value at ZIKV NS5 (setting [5]) is listed as 0.157. The “SAH counterscreen inhibition: Maximum response” value in series [1] (LUM % inhibition) is 14.6%. The “SAH counterscreen inhibition: Hill slope” value in series [1] (setting [5]) is recorded as -59.4. Besides, the “hRNMT-RAM inhibition: Hill slope” value at human RNMT-RAM complex (setting [5]) was found to be 35.3.

For `Cc1c(S(=O)(=O)N2CCc3[nH]ncc3C2)cc(C(=O)NCc2c(F)ccc3occc23)n1C` [TDI-015051], in the series with SARS-CoV-2 [2], the “Inhibition of viral replication in vivo” value is “inhibited viral replication”.

For orientation: CC50 means the concentration that lowers cell viability or growth by half. A low value points to harm at low concentration. For orientation: EC50 means the concentration that produces a half-maximal response. With `Cc1cc(S(=O)(=O)c2cc(C(=O)NCc3c(F)ccc4cnn(C5CC5)c34)n(C)c2C)cc2cn[nH]c12` [TDI-016037], the CC50 in series [3] is at least 3 µM. In addition, the Cytotoxicity result with Huh-7.5 cells is “no cytotoxicity was detected”. Also, the EC50 was determined as 0.008 µM with SARS-CoV-2 [4] (Huh-7.5 cells, read-out: Anti-SARS-CoV-2 activity EC50) and 0.0086 µM in the series with SARS-CoV-2 [4] (Severe acute respiratory syndrome coronavirus 2, Huh7.5, read-out: Anti-SARS-CoV-2 activity EC50, Huh-7.5 cells).
